Results from patent US11447472B2, “Polymorophs of 5-aza-4′-thio-2′-deoxycytidine” (Southern Research Institute, priority 2020, dated 2022).
Values joined by “and” are separate entries in the source; they are usually repeats but may differ in a detail not shown here. Equal values may be shown once. Read-outs that look alike come from different tables or passages of the source.

Tests used:
HL-60 cell lines = experiment: CellTiter-Glo cell viability, HL-60; assay type: cell-based; conditions: HL-60, 3 days, FIG. 24
Description: (§1) K562 and HL-60 cell lines were cultured and maintained in RPMI (10% FBS, 1% Penicillin-Streptomycin) medium at 37° C., 95% Air, and 5% CO2. K562 and HL-60 cell lines were each seeded in 96-well plates at a density of 3000 cells/well (90 μl). Form A and SM were treated in each well at a final concentration of 10 μM by treating 10 μl using 3-fold dilution. The cells were incubated for 3 days at 37° C., 95% Air, and 5% CO2. 96-well plates were placed in room temperature for 30 minutes in order to equilibrate. Then, 100 μl of CellTiter-Glo® Luminescent Cell Viability Assay Reagent was added in 96-wells and incubated for 10 minutes in room temperature. Luminescence was measured using Luminometer and IC50 value was analyzed using GraphPrism.

K562 cell lines = experiment: CellTiter-Glo cell viability, K562; assay type: cell-based; conditions: K562, 3 days, FIG. 23
Description: as §1

[1] = Pharmacokinetics of capsules in male SD rats; conditions: 2 mg/kg; for AUC(0-inf) / AUC(0-t) / Cmax / MRT inf / half-life / Tmax: po; for AUC(0-inf): AUCInf; for AUC(0-t): AUClast; for MRT inf: MRTInf_obs
[2] = Dissolution rate (IDR) at pH 1.2, 6.5 and 5.0; assay type: physicochemical
tumor = experiment: Tumor size (in vivo luciferase activity) in female NOD-SCID mice; conditions: for tumor size (in vivo luciferase activity): 5 days on, 2 days rest, 9 days rest, repeated, FIG. 17
Description: Aza-T-dCyd starting material (SM) was administered to […] female NOD-SCID mice splitting into four groups. Group 1 was a vehicle control group. In group 2, 2.0 mg/kg of aza-T-dCyd starting material (SM) was administered once a day, and in group 3, 1.0 mg/kg of aza-T-dCyd starting material (SM) was administered twice a day. In groups 2 and 3, aza-T-dCyd starting material (SM) in the above amounts was administered for 5 days followed by 2 days as a rest period, and was administered again for another 5 days followed by 9 days as another rest period. This cycle was repeated. In group 4, 1.0 mg/kg of aza-T-dCyd starting material (SM) was administered once a day for five days followed by 2 days as a rest period, and this cycle was repeated.

[3] = system: blood cancer cells (Mv4-11); experiment: IC50 in blood cancer cells (Mv4-11) at different exposure times; assay type: cell-based; conditions: Homo sapiens
Description: Furthermore, the half maximal inhibitory concentration (IC50) was measured at 1 hr, 2 hr, and 4 hr after the blood cancer cells (Mv4-11) were treated with aza-T-dCyd starting material (SM). […] In addition, the measured IC50 at 4 hr was about 80 nM, which was much higher than the expected value of 20 nM. Therefore, it was confirmed that the efficiency of aza-T-dCyd starting material (SM) greatly decreases as the exposure time of the compound to the cells increases.

[4] = 0.25 h, capsule (8:92 w/w with microcrystalline cellulose), male SD rat
[5] = 0.25 h, capsule, mean of two male SD rats
[6] = 0.5 h, capsule, mean of two male SD rats
[7] = capsule, mean of two male SD rats
[8] = male, SD, rat, plasma, Mean, capsule, mean of two male SD rats
[9] = male, SD, rat, plasma, individual rat, capsule, male SD rat

For `Nc1ncn([C@H]2C[C@H](O)[C@@H](CO)S2)c(=O)n1` [Form A, 5-Aza-4′-thio-2′-deoxycytidine], the “IC50 value lower than SM” value (HL-60 cell lines) was “about 5%”, the “IC50 value lower than SM” value (K562 cell lines) was “about 5%” and the “Concentration (plasma), individual rat” value [1, 4] was 77.2 ng/mL and 511 ng/mL. The “Concentration (plasma), Mean” value [1, 5] was 294 ng/mL, the “Concentration (plasma), individual rat” value ([1]; 0.5 h, capsule, male SD rat) was 254 ng/mL and 721 ng/mL and the “Concentration (plasma), Mean” value [1, 6] was 488 ng/mL. The “Concentration (plasma), individual rat” value ([1]; 1 h, capsule, male SD rat) was 815 ng/mL and 912 ng/mL, the “Concentration (plasma), Mean” value ([1]; 1 h, capsule, mean of two male SD rats) was 864 ng/mL and the “Concentration (plasma), individual rat” value ([1]; 2 h, capsule, male SD rat) was 677 ng/mL and 645 ng/mL. The “Concentration (plasma), Mean” value ([1]; 2 h, capsule, mean of two male SD rats) was 661 ng/mL, the “Concentration (plasma), individual rat” value ([1]; 4 h, capsule, male SD rat) was 556 ng/mL and 420 ng/mL and the “Concentration (plasma), Mean” value ([1]; 4 h, capsule, mean of two male SD rats) was 488 ng/mL. For the same compound, the “Concentration (plasma), individual rat” value ([1]; 6 h, capsule, male SD rat) was 397 ng/mL and 307 ng/mL, the “Concentration (plasma), Mean” value ([1]; 6 h, capsule, mean of two male SD rats) was 352 ng/mL and the “Concentration (plasma), individual rat” value ([1]; 8 h, capsule, male SD rat) was 261 ng/mL and 210 ng/mL. The “Concentration (plasma), Mean” value ([1]; 8 h, capsule, mean of two male SD rats) was 236 ng/mL, the “Concentration (plasma), individual rat” value ([1]; 24 h, capsule, male SD rat) was 6.71 ng/mL and 4.29 ng/mL and the “Concentration (plasma), Mean” value ([1]; 24 h, capsule, mean of two male SD rats) was 5.50 ng/mL. The “AUCInf, individual rat” value ([1]; capsule, male SD rat) was 6079 ng·h/mL and 5446 ng·h/mL, the “AUC_%Extrap_obs, individual rat” value ([1]; capsule, male SD rat) was 0.485% and 0.329% and the “AUClast, individual rat” value ([1]; capsule, male SD rat) was 6050 ng·h/mL and 5428 ng·h/mL. For the same compound, the AUClast/D, individual rat ([1]; capsule, male SD rat) was 3020 ng·h/mL per mg/kg and 2710 ng·h/mL per mg/kg, the “Cmax, individual rat” value ([1]; capsule, male SD rat) was 815 ng/mL and 912 ng/mL and the “MRTInf_obs, individual rat” value ([1]; capsule, male SD rat) was 5.40 h and 4.83 h. The “T1/2, individual rat” value ([1]; capsule, male SD rat) was 3.05 h and 2.89 h, the “Tmax, individual rat” value ([1]; capsule, male SD rat) was 1.00 h and the “AUC values higher than SM” value ([1]; capsule, male SD rats) was “about 30%”. The “Cmax value relative to SM” value ([1]; capsule, male SD rats, higher than SM) was “about 1.3 times”, the “AUCInf, Mean” value [1, 7] was 5763 ng·h/mL and the “AUC_%Extrap_obs, Mean” value [1, 7] was 0.407%. The “AUClast, Mean” value [1, 7] was 5739 ng·h/mL, the AUClast/D, Mean [1, 7] was 2870 ng·h/mL per mg/kg and the “Cmax, Mean” value [1, 7] was 864 ng/mL. The “MRTInf_obs, Mean” value [1, 7] was 5.11 h, the “T1/2, Mean” value [1, 7] was 2.97 h and the “Tmax, Mean” value [1, 7] was 1.00 h. The IDR ([2]; FaSSIF, pH 6.5) was 2.2 ± 0.06 mg/mL/Cm^2/min, the IDR ([2]; FeSSIF, pH 5.0) was 4.6 ± 0.07 mg/mL/Cm^2/min and the IDR ([2]; SGF, pH 1.2) was 7.4 ± 0.21 mg/mL/Cm^2/min.

With `Nc1ncn([C@H]2C[C@H](O)[C@@H](CO)S2)c(=O)n1` [SM, 5-Aza-4′-thio-2′-deoxycytidine] the “tumor size on day 43” value (tumor; Group 2 (2.0 mg/kg, once a day) compared with 'Group 1 (1.0 mg/kg, twice a day)', FIG. 18) was “significantly smaller”, the “tumor size (in vivo luciferase activity)” value (tumor; Group 2: 2.0 mg/kg once a day) was “most greatly suppressed” and the “tumor size (in vivo luciferase activity)” value (tumor; Group 3: 1.0 mg/kg twice a day) was “sharply increased after 40 days”. The “Concentration (plasma), individual rat” value [1, 4] was 29.1 ng/mL and 64.9 ng/mL, the “Concentration (plasma), Mean” value [1, 5] was 47.0 ng/mL and the “Concentration (plasma), individual rat” value ([1]; 0.5 h, capsule, male SD rat) was 123 ng/mL and 243 ng/mL. For the same compound, the “Concentration (plasma), Mean” value [1, 6] was 183 ng/mL, the “Concentration (plasma), individual rat” value ([1]; 1 h, capsule, male SD rat) was 321 ng/mL and 610 ng/mL and the “Concentration (plasma), individual rat” value ([1]; 2 h, capsule, male SD rat) was 613 ng/mL. The “Concentration (plasma), individual rat” value ([1]; 4 h, capsule, male SD rat) was 442 ng/mL, the “Concentration (plasma), individual rat” value ([1]; 6 h, capsule, male SD rat) was 283 ng/mL and the “Concentration (plasma), individual rat” value ([1]; 8 h, capsule, male SD rat) was 199 ng/mL. The “Concentration (plasma), individual rat” value ([1]; 24 h, capsule, male SD rat) was 2.65 ng/mL and 4.48 ng/mL, the “AUCInf, individual rat” value ([1]; capsule, male SD rat) was 4780 ng·h/mL and the “AUC_%Extrap_obs, individual rat” value ([1]; capsule, male SD rat) was 0.255% and 0.402%. For the same compound, the “AUClast, individual rat” value ([1]; capsule, male SD rat) was 4761 ng·h/mL, the AUClast/D, individual rat ([1]; capsule, male SD rat) was 2030 ng·h/mL per mg/kg and 2380 ng·h/mL per mg/kg and the “Cmax, individual rat” value ([1]; capsule, male SD rat) was 613 ng/mL. For the same compound, the “MRTInf_obs, individual rat” value ([1]; capsule, male SD rat) was 5.23 h, the “T1/2, individual rat” value ([1]; capsule, male SD rat) was 2.98 h and the “AUC_%Extrap_obs, Mean” value [1, 7] was 0.329%. It also gave an AUClast/D, Mean [1, 7] of 2210 ng·h/mL per mg/kg, a concentration at 1 h ([1]; male, SD, rat, plasma, oral, Concentration (plasma), Mean, 1 h, capsule, mean of two male SD rats) of 466 ng/mL and a concentration at 2 h ([1]; male, SD, rat, plasma, oral, Concentration (plasma), Mean, 2 h, capsule, mean of two male SD rats) of 657 ng/mL. For the same compound, the concentration at 4 h ([1]; male, SD, rat, plasma, oral, Concentration (plasma), Mean, 4 h, capsule, mean of two male SD rats) was 415 ng/mL, the concentration at 6 h ([1]; male, SD, rat, plasma, oral, Concentration (plasma), Mean, 6 h, capsule, mean of two male SD rats) was 272 ng/mL and the concentration at 8 h ([1]; male, SD, rat, plasma, oral, Concentration (plasma), Mean, 8 h, capsule, mean of two male SD rats) was 178 ng/mL. For the same compound, the concentration at 24 h ([1]; male, SD, rat, plasma, oral, Concentration (plasma), Mean, 24 h, capsule, mean of two male SD rats) was 3.57 ng/mL, the concentration at 2 h ([1]; male, SD, rat, plasma, oral, Concentration (plasma), individual rat, 2 h, capsule, male SD rat) was 700 ng/mL and the concentration at 4 h ([1]; male, SD, rat, plasma, oral, Concentration (plasma), individual rat, 4 h, capsule, male SD rat) was 387 ng/mL. It also gave a concentration at 6 h ([1]; male, SD, rat, plasma, oral, Concentration (plasma), individual rat, 6 h, capsule, male SD rat) of 261 ng/mL, a concentration at 8 h ([1]; male, SD, rat, plasma, oral, Concentration (plasma), individual rat, 8 h, capsule, male SD rat) of 156 ng/mL and an AUC(0-inf) [1, 8] of 4430 ng·h/mL. For the same compound, the AUC(0-inf) [1, 9] was 4080 ng·h/mL, the AUC(0-t) [1, 8] was 4410 ng·h/mL and the AUC(0-t) [1, 9] was 4060 ng·h/mL. For the same compound, the Cmax [1, 8] was 657 ng/mL, the Cmax [1, 9] was 700 ng/mL and the MRT inf [1, 8] was 5.15 h. The MRT inf [1, 9] was 5.06 h, the half-life ([1]; male, SD, rat, plasma, T1/2, Mean, capsule, mean of two male SD rats) was 2.85 h and the half-life ([1]; male, SD, rat, plasma, T1/2, individual rat, capsule, male SD rat) was 2.72 h. The Tmax [1, 8] was 2 h, the Tmax [1, 9] was 2 h and the IC50 ([3]; Mv4-11, 1 hr after treatment, read-out: measured IC50 at 1 hr) was about 160 nM. It also gave an IC50 ([3]; Mv4-11, 2 hr after treatment, read-out: measured IC50 at 2 hr) of about 120 nM, an IC50 ([3]; Mv4-11, 4 hr after treatment, read-out: measured IC50 at 4 hr) of about 80 nM and an IC50 ([3]; Mv4-11, expected from the IC50 measured at 1 hr, read-out: expected IC50 at 2 hr) of 80 nM. For the same compound, the IC50 ([3]; Mv4-11, expected from the IC50 measured at 1 hr, read-out: expected IC50 at 4 hr) was 20 nM.
